Source: US20070244071A1, “Treatment of proliferative diseases” (MOUNT SINAI HOSPITAL, priority 2006, published 2007)

Columns and labels:
[1] = system: TGF-β induced Smad2/3 nuclear translocation; assay: TGF-β-dependent Smad2/3 nuclear translocation assay in NMuMG cells; format: cell-based, Murine
Method: NMuMG epithelial cells were plated in 96 well Coming tissue plates (Coming) at a density of 5000 cells/well in 100 μl of DMEM, 10% FBS, 10 μg/ml insulin (Gibco) for 24 h. The medium was replaced with 100 μl of DMEM, 10 μg/ml insulin, 0.2 mg/ml BSA (fraction V) for 18 h. Test compounds at 10 μM were added and cells were incubated for 60 min at 37° C. TGF-β1 (R&D System, Minneapolis, Minn.) was added at 50 pM and incubated for a further 50 min. Cells were then fixed with 4% paraformaldehyde in PBS for 15 min and washed 3 times in PBS. Cells were permeabilized with 100% methanol for 2 min, then washed 3 times with PBS, followed by the addition of 150 μl PBS, 10% FBS. Plates were stored overnight at 4° C. Anti-Smad2/3 or anti-phospho-Smad2 antibodies (Transduction Laboratories, San Jose, Calif.) diluted 1:1000 in PBS plus 10% FBS were added at 50 μl/well and the plates were incubated for 1 h at 20° C. […] The wells were washed 3 times with PBS and imaged and quantified on the Array Scan (Cellomics Inc., Pittsburgh, Pa.) using the cytoplasmic-nuclear translocation program. To measure Erk phosphorylation (Erk-p) and nuclear translocation, mouse anti-phospho-Erkl/2 (Thr202/Tyr204) (Sigma, St. Louis, Mo.) was added at 1/1000 in PBS plus 10% FBS for 1 h at 20° C. The nuclear-cytoplasmic difference was determined for 100 cells per well, generating a mean±SE for each condition.

[2] = system: Mgat5^+/+(2.6) mammary carcinoma cells; assay: Nuclear Smad2/3 and Erk-p (TGF-β / EGF sensitivity) in Mgat5^+/+(2.6) cells; format: cell-based, mice; details: Mgat5^+/+(2.6) cells in culture, 1% FBS, steady state
[3] = system: non-transformed MvLu epithelial cells; assay: Cytotoxicity / cell growth assay, MvLu cells; format: cell-based; details: increasing concentrations, DMEM 1% FBS, AlamarBlue, 72 h (source says 48 h)
Method: In brief, 1000 cells/well were seeded in 96 well plates and cultured for 24 h prior to the addition of DAM-1976. Viable cells were measured at 48 or 72 h by adding of either XTT or AlamarBlue with further incubation at 37° C. For the XTT assay, absorbance was measured at 500 nm, 4 h after addition of XTT. Fluorescence with excitation at 544 nm and emission at 590 nm were measured 24 h after addition of AlamarBlue.

MvLu cells = assay: Steady-state nuclear Smad2-p and Erk-p, MvLu cells; format: cell-based; details: MvLu cells in culture, 1% FBS
DR26 cells = assay: Steady-state nuclear Smad2-p and Erk-p, DR26 cells; format: cell-based; details: DR26 cells in culture, 1% FBS

With “TGF-β: transforming growth factor-beta cytokine; TGF-β1 (R&D System) used as stimulus and growth comparator” the “increase in nuclear Smad2/3 protein” value ([1]; 20 min after addition of cytokine, sustained until 50 min) was 10 fold, the “saturation of Smad2/3 nuclear translocation” value ([1]; dose of 50 pM) was about 80% and the “basal nuclear Erk-p” value [2] was “enhanced”. For the same substance, the “basal nuclear Smad2-p” value [2] was “not altered”, the “cell growth (cell number)” value [3] was “inhibited” and the “basal nuclear Erk-p” value (MvLu cells) was “a decline or no change”. For the same substance, the “basal nuclear Smad2-p” value (MvLu cells) was “increased slightly”, the “basal nuclear Erk-p” value (DR26 cells) was “a decline or no change” and the “basal nuclear Smad2-p” value (DR26 cells) was “not altered”.
